Assays:
tumor = conditions: rats, 24 hours later MK-5108 orally twice per day for 2 days; cited from earlier work
[1] = tested on: small-cell lung cancer (SCLC); conditions: paclitaxel once per week; MLN8237 twice per day for 3 days, 4 days off; cited from earlier work
[2] = Phase 1 clinical dose escalation trial with paclitaxel: safety, dose-limiting toxicity; assay type: in vivo, human
Description: (§1) Paclitaxel and compound I in the form of hydrochloride were administered to cancer patients and evaluated for safety and efficacy. This study was conducted targeting solid cancer patients for whom a standard treatment is not effective, or a treatment is not present. Cancers found to affect the patients included the carcinoma shown in FIG. 3 (urothelial cancer, adrenal cancer, pancreatic cancer, colon cancer, cervical cancer, bile duct cancer, hepatocellular carcinoma, prostate cancer, head and neck cancer, ovarian cancer, gallbladder cancer, non-small cell lung cancer, parotid gland cancer, breast cancer, and fallopian tube cancer). This study also corresponds to a phase 1 clinical dose escalation trial for mainly evaluating safety and determining a recommended dose (RD), that can be administered safely without a concerned side effect in a phase 1 clinical expansion cohort test to be performed on a carcinoma basis.
(§2) A weekly administration regimen was adopted to paclitaxel, in which paclitaxel was administered once per week for 3 weeks, followed by cessation of the drug for 1 week. This administration method is a standard paclitaxel administration regimen and is widely used in clinical practice. On the other hand, the compound I was administered twice per day for 2 or 3 or 4 days from the same day as paclitaxel administration or 1 day after paclitaxel administration; this regimen was performed for 3 weeks together with the weekly paclitaxel administration; and week 4 was set to cessation of the compound I, in accordance with the cessation of paclitaxel. Each administration schedule (dose level) was evaluated from results of administration to 2 to 7 patients.

solid cancer = assay: Phase 1 clinical dose escalation trial with paclitaxel: tumor reduction effect (RECIST); assay type: in vivo, human; conditions: for cases in which a tumor reduction effect was observed: equal dose per day
Description: as §1
In addition to the evaluation of safety, a therapeutic effect on tumor was also evaluated, if possible. The therapeutic effect on tumor was determined as a tumor reduction effect by comprehensive evaluation of target lesions (lesions equal to or larger than a measurable size according to a slice width by CT, etc.) and non-target lesions (all lesions other than the target lesions) with reference to the RECIST evaluation method (Journal of the National Cancer Institute, 2000, Vol 92, No. 3, 205-216J). The dose of the compound I is a weight based on free form.
In this study, PR (partial response) refers to 30% or more decrease in the sum of the major axis of target lesions, compared to that before administration. PD (progressive disease) refers to 20% or more relative increase in the sum of the major axis of target lesions, compared to the smallest sum of the major axis recorded after the start of the study, 5 mm or more absolute increase in the sum of the major axis, or apparent exacerbation of existing non-target lesions or a new lesion. SD (stable disease) refers to insufficient tumor reduction to qualify for PR and insufficient increase to qualify for PD, without progression and exacerbation of tumor, compared to the smallest sum of the major axis recorded after the start of the study.
as §2

Aurora A = biological target: T1, Aurora A (Homo sapiens, UniProt O14965); conditions: cited from earlier work
T1 sequence (O14965 1-403): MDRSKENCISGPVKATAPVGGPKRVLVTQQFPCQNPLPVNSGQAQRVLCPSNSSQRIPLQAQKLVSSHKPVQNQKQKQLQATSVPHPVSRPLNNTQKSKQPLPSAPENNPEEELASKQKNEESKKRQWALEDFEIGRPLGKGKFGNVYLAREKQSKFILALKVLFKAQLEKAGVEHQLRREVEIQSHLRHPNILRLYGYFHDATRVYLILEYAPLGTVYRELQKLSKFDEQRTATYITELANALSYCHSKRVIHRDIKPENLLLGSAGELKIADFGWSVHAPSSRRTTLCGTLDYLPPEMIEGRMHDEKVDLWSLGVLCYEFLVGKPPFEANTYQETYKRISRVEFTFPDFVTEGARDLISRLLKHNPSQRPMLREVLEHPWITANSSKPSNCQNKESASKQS

[3] = in vivo; cited from earlier work
[4] = tested on: Human-derived uterus cancer cell line HeLa-luc; assay: Schedule study of combined use of compound I and paclitaxel in HeLa-luc grafted nude rats; assay type: in vivo; conditions: group 1: paclitaxel 10 mg/kg i.v. on day 1 alone; 5 rats
Description: Human-derived uterus cancer cell line HeLa-luc (PerkinElmer, Inc.) cells transfected with luciferase gene were subcutaneously grafted at 1×10^7 cells to the right abdomens of nude rats (lineage: F344/NJcl-rnu/rnu, female, distributor: CLEA Japan, Inc.). When the volume of the grafted tumor reached approximately 200 mm^3, the rats were divided into groups each consisting of 5 rats according to stratified randomization such that each group had almost the same tumor volume.
To group 1, paclitaxel (10 mg/kg) alone was intravenously administered on day 1. To groups 2 to 5, paclitaxel was administered and, on the next day, the hydrochloride of the compound I (30 mg/kg, based on free form) obtained in Reference Example 1 was orally administered twice per day for 1 day, 2 days, 3 days or 4 days (Sequential treatment; see FIG. 1). […]
The presence or absence of a therapeutic effect was determined by measuring the major axis and minor axis of tumor with time and calculating a tumor volume (TV), relative tumor volume (RTV) and T/C (%) value (average relative tumor volume ratio of the treatment group to the control group) on day 10 after initiation of administration, according to the following formulas. […]

O=C(O)[C@]1(Cc2cccc(Nc3nccs3)n2)CC[C@@H](Oc2cccc(Cl)c2F)CC1 [MK-5108]
effect on side effect of docetaxel (tumor): without exacerbating the side effect of docetaxel
effect on tumor reduction effect of docetaxel (tumor): tumor reduction effect of docetaxel is enhanced

COc1cc(Nc2ncc3c(n2)-c2ccc(Cl)cc2C(c2c(F)cccc2OC)=NC3)ccc1C(=O)O [alisertib]
adverse events [1]: serious adverse events such as neutropenia was found
efficacy in combination with paclitaxel [1]: effective for small-cell lung cancer

Cc1cc(Nc2nc(CC3(C(=O)O)CCN(C(=O)c4cccc(Cl)c4Cl)CC3)ccc2F)n[nH]1 [compound I, 1-(2,3-dichlorobenzoyl)-4-[5-fluoro-6-(5-methyl-1H-pyrazol-3-ylamino)pyridin-2-yl]methyl-4-piperidinecarboxylic acid]
patients with dose-limiting toxicity (DLT) ([2]; DL1: paclitaxel 90 mg/m^2/day weekly, compound I 25 mg/dose twice per day for 4 days from same day as paclitaxel, 3 weeks): two out of three
tolerability determination of the dose level ([2]; DL1: paclitaxel 90 mg/m^2/day, compound I 25 mg/dose twice per day for 4 days): exceed the maximum tolerable dose
tolerability determination of the dose level ([2]; DL2: paclitaxel 70 mg/m^2/day, compound I for 2 days): tolerable
patients with dose-limiting toxicity (DLT) ([2]; DL2: paclitaxel 70 mg/m^2/day, compound I for 2 days from 1 day after paclitaxel): not observed in any of three cases
tolerability determination of the dose level ([2]; DL6: paclitaxel 80 mg/m^2/day, compound I 75 mg per dose twice per day for 3 days): most suitable as the maximally tolerated dose
patients with grade 3 or higher dose-limiting toxicity ([2]; DL6: paclitaxel 80 mg/m^2/day, compound I 75 mg per dose twice per day for 3 days from day following paclitaxel): not observed in any of seven cases
tolerability determination of the dose level ([2]; DL7: paclitaxel 80 mg/m^2/day, compound I 100 mg per dose twice per day for 3 days): exceed the maximum tolerable dose
patients with dose-limiting toxicity (DLT) ([2]; DL7: paclitaxel 80 mg/m^2/day, compound I 100 mg per dose twice per day for 3 days from day following paclitaxel): two out of three
tolerability ([2]; compound I 2 consecutive days, 75 mg per dose, total 300 mg per week, with paclitaxel): tolerable without the dose-limiting toxicity
patients in which a tumor reduction effect was observed (solid cancer; 2 on 5 off schedule, 6 out of 12 patients, with paclitaxel): 50%
cases that had PR (solid cancer; 2 on 5 off schedule, one out of 12 cases, with paclitaxel): 8.3%
cases that manifested PR (solid cancer; 3 on 4 off schedule (dose levels 6 and 7), 3 out of 8 cases, with paclitaxel): 38%
patients in which a tumor reduction effect was observed (solid cancer; 3 on 4 off schedule, 7 out of 8 patients, with paclitaxel): 88%
number of patients with PR (partial response) (solid cancer; all dose levels, 22 evaluable cases, combination with paclitaxel): 5
cases in which a tumor reduction effect was observed (solid cancer; 2 on 5 off (dose level 5), 1 out of 3 cases, with paclitaxel): 33%
cases in which a tumor reduction effect was observed (solid cancer; 3 on 4 off (dose level 6), 4 out of 5 cases, with paclitaxel): 80%
Aurora A selective inhibitory activity (Aurora A): excellent
oral absorbability [3]: excellent in oral absorbability

CC(=O)O[C@H]1C(=O)[C@@]2(C)[C@H]([C@H](OC(=O)c3ccccc3)[C@]3(O)C[C@H](OC(=O)[C@H](O)[C@@H](NC(=O)c4ccccc4)c4ccccc4)C(C)=C1C3(C)C)[C@]1(OC(C)=O)CO[C@@H]1C[C@@H]2O [paclitaxel]
number of CR (complete remission) cases [4]: no CR cases were observed

Source: patent US12036215B2, “Antitumor agent and method for tumor therapy” (TAIHO PHARMACEUTICAL CO., LTD., priority 2018, dated 2024)
